Source: the supplement of paper PMC10307832

Tests used:
Test in all cases: relative viability (nuclei count vs DMSO), 5 days (fraction); higher = more cells survive
H3255 = tested on: H3255
Summary of the method: (§1)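 The day after seeding in 1536-well plates, lung cancer cell lines were treated by pin tool with a single drug, or with a fixed anchor-drug dose together with five library-drug doses (not always all listed) in √10 steps. After 5 days, a combined fix-and-stain solution (final 0.05% Triton X-100, 1% formaldehyde, 1 ug/ml Hoechst) was added. Nuclei counted on 4× images gave relative viability as treated counts over vehicle counts, reported as the median of duplicate plates.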

NCI-H650 = tested on: NCI-H650
Summary of the method: as §1

HCC-78 = tested on: HCC-78
Summary of the method: as §1

NCI-H460 = tested on: NCI-H460
Summary of the method: as §1

PC-3 [JPC-3] = tested on: PC-3 [JPC-3]
Summary of the method: as §1

201T = tested on: 201T
Summary of the method: as §1

NCI-H1650 = tested on: NCI-H1650
Summary of the method: as §1

NCI-H1651 = tested on: NCI-H1651
Summary of the method: as §1

COR-L23 = tested on: COR-L23
Summary of the method: as §1

NCI-H358 = tested on: NCI-H358
Summary of the method: as §1

HCC-366 = tested on: HCC-366
Summary of the method: as §1

NCI-H1793 = tested on: NCI-H1793
Summary of the method: as §1

`Cc1csc(=NC2CCCCC2)n1/N=C/c1ccc(O)c(O)c1O` [MIM1] + Cc1cc(Nc2cc(N3CCN(C)CC3)nc(Sc3ccc(NC(=O)C4CC4)cc3)n2)n[nH]1 [Tozasertib] (partner 0.1 µM) gave a relative viability (H3255; first compound 0.2 µM) of 0.526, a relative viability (H3255; first compound 0.6325 µM) of 0.54 and a relative viability (H3255; first compound 2 µM) of 0.601. It also gave a relative viability (H3255; first compound 6.325 µM) of 0.537, a relative viability (H3255; first compound 20 µM) of 0.277 and a relative viability (NCI-H650; first compound 0.2 µM) of 0.774. For the same compound, the relative viability (NCI-H650; first compound 0.6325 µM) was 0.711, the relative viability (NCI-H650; first compound 2 µM) was 0.748 and the relative viability (NCI-H650; first compound 6.325 µM) was 0.69. The relative viability (NCI-H650; first compound 20 µM) was 0.244, the relative viability (HCC-78; first compound 0.2 µM) was 0.461 and the relative viability (HCC-78; first compound 0.6325 µM) was 0.288. It also gave a relative viability (HCC-78; first compound 2 µM) of 0.454, a relative viability (HCC-78; first compound 6.325 µM) of 0.39 and a relative viability (HCC-78; first compound 20 µM) of 0.337. For the same compound, the relative viability (NCI-H460; first compound 0.2 µM) was 0.447, the relative viability (NCI-H460; first compound 0.6325 µM) was 0.499 and the relative viability (NCI-H460; first compound 2 µM) was 0.149. It also gave a relative viability (NCI-H460; first compound 20 µM) of 0.0359, a relative viability (PC-3 [JPC-3]; first compound 0.2 µM) of 0.912 and a relative viability (PC-3 [JPC-3]; first compound 0.6325 µM) of 0.86. The relative viability (PC-3 [JPC-3]; first compound 2 µM) was 0.849, the relative viability (PC-3 [JPC-3]; first compound 6.325 µM) was 0.694 and the relative viability (PC-3 [JPC-3]; first compound 20 µM) was 0.574. The relative viability (201T; first compound 0.2 µM) was 0.956, the relative viability (201T; first compound 0.6325 µM) was 1 and the relative viability (201T; first compound 2 µM) was 0.896. For the same compound, the relative viability (201T; first compound 6.325 µM) was 0.504, the relative viability (201T; first compound 20 µM) was 0.377 and the relative viability (NCI-H1650; first compound 0.2 µM) was 0.529. It also gave a relative viability (NCI-H1650; first compound 0.6325 µM) of 0.411, a relative viability (NCI-H1650; first compound 2 µM) of 0.282 and a relative viability (NCI-H1650; first compound 6.325 µM) of 0.322. For the same compound, the relative viability (NCI-H1650; first compound 20 µM) was 0.133, the relative viability (NCI-H1651; first compound 0.2 µM) was 0.601 and the relative viability (NCI-H1651; first compound 0.6325 µM) was 0.689. It also gave a relative viability (NCI-H1651; first compound 2 µM) of 0.565, a relative viability (NCI-H1651; first compound 6.325 µM) of 0.607 and a relative viability (NCI-H1651; first compound 20 µM) of 0.503. The relative viability (COR-L23; first compound 0.2 µM) was 0.184, the relative viability (COR-L23; first compound 0.6325 µM) was 0.218 and the relative viability (COR-L23; first compound 2 µM) was 0.182. It also gave a relative viability (COR-L23; first compound 6.325 µM) of 0.146, a relative viability (COR-L23; first compound 20 µM) of 0.152 and a relative viability (NCI-H358; first compound 0.2 µM) of 0.106. It also gave a relative viability (NCI-H358; first compound 0.6325 µM) of 0.0936, a relative viability (NCI-H358; first compound 2 µM) of 0.129 and a relative viability (NCI-H358; first compound 6.325 µM) of 0.0878. For the same compound, the relative viability (NCI-H358; first compound 20 µM) was 0.0838, the relative viability (HCC-366; first compound 0.2 µM) was 0.147 and the relative viability (HCC-366; first compound 2 µM) was 0.134. It also gave a relative viability (HCC-366; first compound 6.325 µM) of 0.026, a relative viability (HCC-366; first compound 20 µM) of 0.0212 and a relative viability (NCI-H1793; first compound 0.2 µM) of 0.405. It also gave a relative viability (NCI-H1793; first compound 2 µM) of 0.435.
